How the values were obtained:
Assay in all cases: radiometric filter-binding kinase assay, Kinase HotSpot
Conditions in all cases: compound 0.5 µM; ATP 10 µM
MARK3 (human) = MARK3 (human) (UniProt P27448)
NUAK1 (human) = NUAK1 (human) (UniProt O60285)
RPS6KA6 KD1 KD2 (human) = RPS6KA6 KD1 KD2 (human) (UniProt Q9UK32)
PAK7 (human) = PAK7 (human) (UniProt Q9P286)
FLT1 (human) = FLT1 (human) (UniProt P17948)
AKT2 (human) = AKT2 (human) (UniProt P31751)
TAOK1 (human) = TAOK1 (human) (UniProt Q7L7X3)
FGFR4 (human) = FGFR4 (human) (UniProt P22455)
RPS6KB1 (human) = RPS6KB1 (human) (UniProt P23443)
STK10 (human) = STK10 (human) (UniProt O94804)
FGFR1 (human) = FGFR1 (human) (UniProt P11362)
STK16 (human) = STK16 (human) (UniProt O75716)
PRKD1 (human) = PRKD1 (human) (UniProt Q15139)
EPHB1 (human) = EPHB1 (human) (UniProt P54762)
MAP4K2 (human) = MAP4K2 (human) (UniProt Q12851)
TXK (human) = TXK (human) (UniProt P42681)
PKN1 (human) = PKN1 (human) (UniProt Q16512)
PRKACA (human) = PRKACA (human) (UniProt P17612)
ABL1 (human) = ABL1 (human) (UniProt P00519)
INSR (human) = INSR (human) (UniProt P06213)
TAOK3 (human) = TAOK3 (human) (UniProt Q9H2K8)
CAMKK1 (human) = CAMKK1 (human) (UniProt Q8N5S9)
MAPK10 (human) = MAPK10 (human) (UniProt P53779)
IGF1R (human) = IGF1R (human) (UniProt P08069)
LRRK2 (human) = LRRK2 (human) (UniProt Q5S007)
ABL2 (human) = ABL2 (human) (UniProt P42684)
EPHA7 (human) = EPHA7 (human) (UniProt Q15375)
RAF1 (human) = RAF1 (human) (UniProt P04049)
NTRK2 (human) = NTRK2 (human) (UniProt Q16620)
ZAP70 (human) = ZAP70 (human) (UniProt P43403)
CDK5 CDK5R1 p35 (human) = CDK5 CDK5R1 p35 (human) (UniProt Q00535+Q15078)
CLK4 (human) = CLK4 (human) (UniProt Q9HAZ1)
TNK2 (human) = TNK2 (human) (UniProt Q07912)
MAPK14 (human) = MAPK14 (human) (UniProt Q16539)
LIMK1 (human) = LIMK1 (human) (UniProt P53667)
NEK11 (human) = NEK11 (human) (UniProt Q8NG66)
DYRK1A (human) = DYRK1A (human) (UniProt Q13627)
RPS6KA1 KD1 KD2 (human) = RPS6KA1 KD1 KD2 (human) (UniProt Q15418)
PASK (human) = PASK (human) (UniProt Q96RG2)
TSSK1B (human) = TSSK1B (human) (UniProt Q9BXA7)
CDK1 CCNB1 (human) = CDK1 CCNB1 (human) (UniProt P06493+P14635)
CSNK2A2 (human) = CSNK2A2 (human) (UniProt P19784)

RPS6KA1 KD1 KD2 (human), sequence (Q15418 whole entry, looked up): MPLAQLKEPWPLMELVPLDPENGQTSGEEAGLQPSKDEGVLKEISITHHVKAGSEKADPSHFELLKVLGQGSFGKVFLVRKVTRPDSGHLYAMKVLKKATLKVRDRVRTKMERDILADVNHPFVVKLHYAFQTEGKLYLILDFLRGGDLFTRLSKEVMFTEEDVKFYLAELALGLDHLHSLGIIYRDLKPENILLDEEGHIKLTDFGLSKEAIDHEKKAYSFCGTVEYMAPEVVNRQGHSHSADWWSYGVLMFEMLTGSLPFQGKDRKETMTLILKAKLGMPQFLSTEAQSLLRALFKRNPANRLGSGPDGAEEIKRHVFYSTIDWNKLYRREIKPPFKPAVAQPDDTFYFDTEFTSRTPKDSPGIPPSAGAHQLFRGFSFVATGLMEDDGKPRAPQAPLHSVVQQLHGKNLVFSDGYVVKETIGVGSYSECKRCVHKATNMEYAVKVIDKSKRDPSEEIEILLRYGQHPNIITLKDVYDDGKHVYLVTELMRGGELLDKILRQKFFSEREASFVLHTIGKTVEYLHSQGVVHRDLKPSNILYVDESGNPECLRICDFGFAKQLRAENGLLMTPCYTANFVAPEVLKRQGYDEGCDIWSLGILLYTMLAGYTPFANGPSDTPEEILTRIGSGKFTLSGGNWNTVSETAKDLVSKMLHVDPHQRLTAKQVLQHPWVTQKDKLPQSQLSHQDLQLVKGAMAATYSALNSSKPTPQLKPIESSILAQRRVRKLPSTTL
EPHA7 (human), sequence (Q15375 whole entry, looked up): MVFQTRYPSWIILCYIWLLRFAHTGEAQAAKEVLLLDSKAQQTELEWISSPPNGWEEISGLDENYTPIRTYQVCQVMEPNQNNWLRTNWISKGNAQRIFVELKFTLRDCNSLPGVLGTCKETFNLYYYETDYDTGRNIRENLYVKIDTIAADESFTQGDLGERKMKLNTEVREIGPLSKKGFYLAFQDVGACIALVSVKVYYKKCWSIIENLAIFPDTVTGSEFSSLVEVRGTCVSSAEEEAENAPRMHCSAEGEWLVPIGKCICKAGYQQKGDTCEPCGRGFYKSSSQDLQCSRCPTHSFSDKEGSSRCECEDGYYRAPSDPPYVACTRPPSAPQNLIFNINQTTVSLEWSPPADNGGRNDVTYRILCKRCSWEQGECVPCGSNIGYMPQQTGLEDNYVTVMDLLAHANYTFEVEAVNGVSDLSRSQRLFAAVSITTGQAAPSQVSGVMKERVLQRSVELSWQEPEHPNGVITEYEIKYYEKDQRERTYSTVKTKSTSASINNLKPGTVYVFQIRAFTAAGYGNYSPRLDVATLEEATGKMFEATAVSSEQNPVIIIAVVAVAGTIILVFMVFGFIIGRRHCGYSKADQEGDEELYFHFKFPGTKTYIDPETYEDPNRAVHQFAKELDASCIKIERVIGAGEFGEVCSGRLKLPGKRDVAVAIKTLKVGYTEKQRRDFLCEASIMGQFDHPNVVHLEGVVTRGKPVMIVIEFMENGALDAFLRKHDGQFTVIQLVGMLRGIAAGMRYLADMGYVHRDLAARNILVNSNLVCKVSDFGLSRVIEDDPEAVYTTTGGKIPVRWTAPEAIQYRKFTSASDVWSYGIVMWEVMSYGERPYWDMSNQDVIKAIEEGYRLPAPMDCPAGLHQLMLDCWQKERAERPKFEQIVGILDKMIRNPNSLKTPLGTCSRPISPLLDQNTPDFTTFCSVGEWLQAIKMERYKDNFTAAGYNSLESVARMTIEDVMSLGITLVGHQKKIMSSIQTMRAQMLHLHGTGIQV
FLT1 (human), sequence (P17948 whole entry, looked up): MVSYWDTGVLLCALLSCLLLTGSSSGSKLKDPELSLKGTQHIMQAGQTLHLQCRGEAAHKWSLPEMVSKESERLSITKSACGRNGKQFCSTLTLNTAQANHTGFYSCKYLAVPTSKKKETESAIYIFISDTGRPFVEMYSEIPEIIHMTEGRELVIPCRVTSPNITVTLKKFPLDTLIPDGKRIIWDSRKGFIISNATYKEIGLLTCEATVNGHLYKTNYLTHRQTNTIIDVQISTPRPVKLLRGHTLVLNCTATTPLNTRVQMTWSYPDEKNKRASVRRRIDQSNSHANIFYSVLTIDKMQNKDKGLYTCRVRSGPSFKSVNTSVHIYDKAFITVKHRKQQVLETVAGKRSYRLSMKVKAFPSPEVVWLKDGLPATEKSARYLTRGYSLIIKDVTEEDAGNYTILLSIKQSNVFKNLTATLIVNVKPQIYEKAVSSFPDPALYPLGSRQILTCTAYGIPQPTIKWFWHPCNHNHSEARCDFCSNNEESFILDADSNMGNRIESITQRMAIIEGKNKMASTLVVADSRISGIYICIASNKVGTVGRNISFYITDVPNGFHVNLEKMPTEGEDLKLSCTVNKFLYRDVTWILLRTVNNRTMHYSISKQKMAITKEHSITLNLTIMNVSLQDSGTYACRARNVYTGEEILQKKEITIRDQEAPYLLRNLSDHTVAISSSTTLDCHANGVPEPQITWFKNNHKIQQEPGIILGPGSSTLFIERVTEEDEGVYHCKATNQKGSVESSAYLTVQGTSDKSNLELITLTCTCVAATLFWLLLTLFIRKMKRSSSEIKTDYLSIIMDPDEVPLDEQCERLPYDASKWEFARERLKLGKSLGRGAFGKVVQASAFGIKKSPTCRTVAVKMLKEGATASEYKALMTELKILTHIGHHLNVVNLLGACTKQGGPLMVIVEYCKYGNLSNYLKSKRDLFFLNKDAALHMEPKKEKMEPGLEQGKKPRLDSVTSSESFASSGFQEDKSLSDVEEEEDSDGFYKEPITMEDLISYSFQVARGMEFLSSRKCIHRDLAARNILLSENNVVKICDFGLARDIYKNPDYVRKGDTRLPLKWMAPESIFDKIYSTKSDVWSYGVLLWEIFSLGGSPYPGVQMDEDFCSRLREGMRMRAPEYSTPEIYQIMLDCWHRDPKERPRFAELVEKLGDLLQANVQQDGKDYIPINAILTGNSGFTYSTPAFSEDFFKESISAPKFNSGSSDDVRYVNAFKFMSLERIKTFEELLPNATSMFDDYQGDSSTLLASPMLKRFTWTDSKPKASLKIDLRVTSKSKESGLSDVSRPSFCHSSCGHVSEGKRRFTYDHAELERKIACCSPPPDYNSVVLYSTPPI
MAPK10 (human), sequence (P53779 whole entry, looked up): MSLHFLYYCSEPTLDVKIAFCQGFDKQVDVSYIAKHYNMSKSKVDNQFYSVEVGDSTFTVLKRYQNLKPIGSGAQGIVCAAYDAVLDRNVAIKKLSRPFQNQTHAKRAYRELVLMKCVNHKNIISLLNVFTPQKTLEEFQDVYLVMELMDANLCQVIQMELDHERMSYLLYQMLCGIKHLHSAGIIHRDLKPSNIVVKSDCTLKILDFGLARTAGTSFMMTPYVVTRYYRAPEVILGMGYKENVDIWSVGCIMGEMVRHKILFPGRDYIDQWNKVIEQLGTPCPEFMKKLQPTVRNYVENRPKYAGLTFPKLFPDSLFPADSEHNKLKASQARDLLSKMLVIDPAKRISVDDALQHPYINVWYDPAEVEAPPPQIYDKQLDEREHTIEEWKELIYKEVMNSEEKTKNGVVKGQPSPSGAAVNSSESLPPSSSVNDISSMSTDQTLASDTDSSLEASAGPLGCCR
INSR (human), sequence (P06213 whole entry, looked up): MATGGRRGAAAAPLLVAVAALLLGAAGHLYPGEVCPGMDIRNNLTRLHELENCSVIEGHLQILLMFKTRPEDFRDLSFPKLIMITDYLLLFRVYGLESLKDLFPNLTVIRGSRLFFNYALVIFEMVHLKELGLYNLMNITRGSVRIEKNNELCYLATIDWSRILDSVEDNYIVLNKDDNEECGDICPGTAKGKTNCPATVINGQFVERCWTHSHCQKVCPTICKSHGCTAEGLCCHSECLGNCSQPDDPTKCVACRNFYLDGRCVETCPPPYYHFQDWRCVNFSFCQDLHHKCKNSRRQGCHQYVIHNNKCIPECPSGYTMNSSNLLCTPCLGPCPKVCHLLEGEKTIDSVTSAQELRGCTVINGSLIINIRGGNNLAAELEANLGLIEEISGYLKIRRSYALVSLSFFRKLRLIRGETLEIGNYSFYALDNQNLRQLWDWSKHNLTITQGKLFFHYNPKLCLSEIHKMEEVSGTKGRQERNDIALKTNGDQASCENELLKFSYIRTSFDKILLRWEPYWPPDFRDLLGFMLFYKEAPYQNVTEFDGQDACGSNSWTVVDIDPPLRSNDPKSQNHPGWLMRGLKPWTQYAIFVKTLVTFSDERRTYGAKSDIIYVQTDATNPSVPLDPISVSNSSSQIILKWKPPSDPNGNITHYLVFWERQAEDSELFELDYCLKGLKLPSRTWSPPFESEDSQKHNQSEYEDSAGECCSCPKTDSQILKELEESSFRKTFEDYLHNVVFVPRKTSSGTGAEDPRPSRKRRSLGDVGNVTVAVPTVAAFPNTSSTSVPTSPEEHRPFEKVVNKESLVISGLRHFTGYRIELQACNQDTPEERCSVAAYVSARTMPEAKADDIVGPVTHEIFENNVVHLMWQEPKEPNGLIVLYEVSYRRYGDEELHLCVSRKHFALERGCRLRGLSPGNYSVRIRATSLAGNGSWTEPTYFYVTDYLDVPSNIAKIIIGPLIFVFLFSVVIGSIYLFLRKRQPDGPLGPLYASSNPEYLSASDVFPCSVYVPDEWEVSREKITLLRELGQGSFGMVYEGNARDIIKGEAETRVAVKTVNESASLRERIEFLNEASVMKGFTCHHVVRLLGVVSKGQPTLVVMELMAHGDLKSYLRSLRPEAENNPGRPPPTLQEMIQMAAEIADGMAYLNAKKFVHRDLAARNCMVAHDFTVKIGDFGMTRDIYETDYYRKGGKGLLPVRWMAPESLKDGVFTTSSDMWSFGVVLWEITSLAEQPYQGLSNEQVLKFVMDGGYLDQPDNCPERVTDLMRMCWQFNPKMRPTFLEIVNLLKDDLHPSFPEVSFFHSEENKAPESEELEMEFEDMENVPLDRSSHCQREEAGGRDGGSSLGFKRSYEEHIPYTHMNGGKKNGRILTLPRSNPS

O=c1c(-c2ccc(F)cc2)c(-c2ccncc2)[nH]n1-c1ccc(Cl)cc1
residual activity (MARK3 (human)): 87.2%
residual activity (NUAK1 (human)): 89.1%
residual activity (RPS6KA6 KD1 KD2 (human)): 90.3%
residual activity (PAK7 (human)): 86.3%
residual activity (FLT1 (human)): 81.3%
residual activity (AKT2 (human)): 97.8%
residual activity (TAOK1 (human)): 102%
residual activity (FGFR4 (human)): 92.4%
residual activity (RPS6KB1 (human)): 89.9%
residual activity (STK10 (human)): 81.9%
residual activity (FGFR1 (human)): 93.7%
residual activity (STK16 (human)): 100%
residual activity (PRKD1 (human)): 84.7%
residual activity (EPHB1 (human)): 90.5%
residual activity (MAP4K2 (human)): 87.7%
residual activity (TXK (human)): 94.4%
residual activity (PKN1 (human)): 92.4%
residual activity (PRKACA (human)): 90.7%
residual activity (ABL1 (human)): 98.1%
residual activity (INSR (human)): 110%
residual activity (TAOK3 (human)): 89.5%
residual activity (CAMKK1 (human)): 98.5%
residual activity (MAPK10 (human)): 97.1%
residual activity (IGF1R (human)): 92.8%
residual activity (LRRK2 (human)): 102%
residual activity (ABL2 (human)): 82.8%
residual activity (EPHA7 (human)): 98.5%
residual activity (RAF1 (human)): 61.4%
residual activity (NTRK2 (human)): 88.5%
residual activity (ZAP70 (human)): 108%
residual activity (CDK5 CDK5R1 p35 (human)): 104%
residual activity (CLK4 (human)): 78.9%
residual activity (TNK2 (human)): 91.2%
residual activity (MAPK14 (human)): 11.2%
residual activity (LIMK1 (human)): 91.5%
residual activity (NEK11 (human)): 104%
residual activity (DYRK1A (human)): 89.8%
residual activity (RPS6KA1 KD1 KD2 (human)): 103%
residual activity (PASK (human)): 93.6%
residual activity (TSSK1B (human)): 76.2%

Nc1ncnc2c1cnn2-c1ccccc1
residual activity (MARK3 (human)): 86.1%
residual activity (NUAK1 (human)): 93.2%
residual activity (RPS6KA6 KD1 KD2 (human)): 94.1%
residual activity (PAK7 (human)): 97%
residual activity (FLT1 (human)): 88.5%
residual activity (AKT2 (human)): 102%
residual activity (TAOK1 (human)): 89.5%
residual activity (FGFR4 (human)): 94.8%
residual activity (RPS6KB1 (human)): 103%
residual activity (STK10 (human)): 95.4%
residual activity (FGFR1 (human)): 93%
residual activity (STK16 (human)): 94.3%
residual activity (PRKD1 (human)): 98.1%
residual activity (EPHB1 (human)): 97.5%
residual activity (MAP4K2 (human)): 94.9%
residual activity (TXK (human)): 94.8%
residual activity (PKN1 (human)): 98.6%
residual activity (ABL1 (human)): 99.4%
residual activity (INSR (human)): 103%
residual activity (TAOK3 (human)): 89.1%
residual activity (CAMKK1 (human)): 84.8%
residual activity (MAPK10 (human)): 100%
residual activity (IGF1R (human)): 96.4%
residual activity (LRRK2 (human)): 99.3%
residual activity (ABL2 (human)): 93%
residual activity (EPHA7 (human)): 99.2%
residual activity (RAF1 (human)): 95.4%
residual activity (NTRK2 (human)): 88.7%
residual activity (ZAP70 (human)): 91.5%
residual activity (CDK5 CDK5R1 p35 (human)): 99.2%
residual activity (CLK4 (human)): 76.7%
residual activity (TNK2 (human)): 90.3%
residual activity (MAPK14 (human)): 89.2%
residual activity (LIMK1 (human)): 89.1%
residual activity (NEK11 (human)): 107%
residual activity (DYRK1A (human)): 96.8%
residual activity (RPS6KA1 KD1 KD2 (human)): 79.5%
residual activity (PASK (human)): 96.8%
residual activity (TSSK1B (human)): 84.1%

c1ccc(-c2cnc(Nc3ccc(OCCN4CCCC4)cc3)s2)cc1
residual activity (MARK3 (human)): 93.1%
residual activity (NUAK1 (human)): 56.4%
residual activity (RPS6KA6 KD1 KD2 (human)): 94.5%
residual activity (CDK1 CCNB1 (human)): 85.1%
residual activity (PAK7 (human)): 87.2%
residual activity (FLT1 (human)): 74.5%
residual activity (AKT2 (human)): 92.4%
residual activity (FGFR4 (human)): 95.6%
residual activity (RPS6KB1 (human)): 92.3%
residual activity (STK10 (human)): 76.9%
residual activity (FGFR1 (human)): 75.4%
residual activity (STK16 (human)): 92%
residual activity (PRKD1 (human)): 78.4%
residual activity (EPHB1 (human)): 95.4%
residual activity (MAP4K2 (human)): 113%
residual activity (TXK (human)): 91.1%
residual activity (PKN1 (human)): 94.8%
residual activity (PRKACA (human)): 102%
residual activity (ABL1 (human)): 63.3%
residual activity (CSNK2A2 (human)): 92.1%
residual activity (INSR (human)): 95%
residual activity (TAOK3 (human)): 87.4%
residual activity (CAMKK1 (human)): 56.6%
residual activity (MAPK10 (human)): 92.9%
residual activity (IGF1R (human)): 112%
residual activity (LRRK2 (human)): 95.8%
residual activity (ABL2 (human)): 37.2%
residual activity (EPHA7 (human)): 98%
residual activity (RAF1 (human)): 99%
residual activity (NTRK2 (human)): 50.4%
residual activity (ZAP70 (human)): 105%
residual activity (CDK5 CDK5R1 p35 (human)): 82.4%
residual activity (CLK4 (human)): 97.9%
residual activity (TNK2 (human)): 66.6%
residual activity (MAPK14 (human)): 103%
residual activity (LIMK1 (human)): 66.9%
residual activity (NEK11 (human)): 95%
residual activity (DYRK1A (human)): 94.2%
residual activity (RPS6KA1 KD1 KD2 (human)): 78%
residual activity (PASK (human)): 96.4%
residual activity (TSSK1B (human)): 96.5%

N#Cc1c(NC(=O)c2cccc3ccccc23)sc2c1CCCC2
residual activity (MARK3 (human)): 97.1%
residual activity (NUAK1 (human)): 97.3%
residual activity (RPS6KA6 KD1 KD2 (human)): 101%
residual activity (CDK1 CCNB1 (human)): 111%
residual activity (PAK7 (human)): 103%
residual activity (FLT1 (human)): 84.4%
residual activity (AKT2 (human)): 105%
residual activity (TAOK1 (human)): 106%
residual activity (FGFR4 (human)): 109%
residual activity (RPS6KB1 (human)): 105%
residual activity (STK10 (human)): 97.7%
residual activity (FGFR1 (human)): 105%
residual activity (STK16 (human)): 98.5%
residual activity (PRKD1 (human)): 101%
residual activity (EPHB1 (human)): 95.9%
residual activity (MAP4K2 (human)): 86.1%
residual activity (TXK (human)): 97%
residual activity (PKN1 (human)): 108%
residual activity (PRKACA (human)): 102%
residual activity (ABL1 (human)): 103%
residual activity (CSNK2A2 (human)): 92.2%
residual activity (INSR (human)): 98.2%
residual activity (TAOK3 (human)): 90.2%
residual activity (CAMKK1 (human)): 109%
residual activity (MAPK10 (human)): 112%
residual activity (LRRK2 (human)): 100%
residual activity (ABL2 (human)): 98.9%
residual activity (RAF1 (human)): 92.9%
residual activity (NTRK2 (human)): 100%
residual activity (ZAP70 (human)): 95%
residual activity (CDK5 CDK5R1 p35 (human)): 105%
residual activity (CLK4 (human)): 92%
residual activity (TNK2 (human)): 95.4%
residual activity (MAPK14 (human)): 98.1%
residual activity (LIMK1 (human)): 102%
residual activity (NEK11 (human)): 105%
residual activity (DYRK1A (human)): 96.7%
residual activity (RPS6KA1 KD1 KD2 (human)): 86.1%
residual activity (PASK (human)): 98.3%
residual activity (TSSK1B (human)): 94.9%

N#C/C(=C1/Nc2ccccc2S1)c1ccnc(NCCc2cccnc2)n1
residual activity (MARK3 (human)): 94.9%
residual activity (NUAK1 (human)): 91.8%
residual activity (RPS6KA6 KD1 KD2 (human)): 87%
residual activity (CDK1 CCNB1 (human)): 96.8%
residual activity (PAK7 (human)): 98.9%
residual activity (FLT1 (human)): 74%
residual activity (AKT2 (human)): 104%
residual activity (TAOK1 (human)): 98%
residual activity (FGFR4 (human)): 101%
residual activity (RPS6KB1 (human)): 98.2%
residual activity (STK10 (human)): 86.3%
residual activity (FGFR1 (human)): 99%
residual activity (STK16 (human)): 79.2%
residual activity (PRKD1 (human)): 82.4%
residual activity (EPHB1 (human)): 90.9%
residual activity (MAP4K2 (human)): 76.9%
residual activity (TXK (human)): 49.3%
residual activity (PKN1 (human)): 96.3%
residual activity (PRKACA (human)): 103%
residual activity (ABL1 (human)): 96.3%
residual activity (CSNK2A2 (human)): 27.1%
residual activity (INSR (human)): 100%
residual activity (TAOK3 (human)): 87.5%
residual activity (CAMKK1 (human)): 101%
residual activity (IGF1R (human)): 100%
residual activity (LRRK2 (human)): 83.4%
residual activity (ABL2 (human)): 98.8%
residual activity (EPHA7 (human)): 99.4%
residual activity (RAF1 (human)): 84%
residual activity (NTRK2 (human)): 93.2%
residual activity (ZAP70 (human)): 94.5%
residual activity (CDK5 CDK5R1 p35 (human)): 97.2%
residual activity (CLK4 (human)): 43.8%
residual activity (TNK2 (human)): 42.8%
residual activity (MAPK14 (human)): 89.1%
residual activity (LIMK1 (human)): 90.2%
residual activity (NEK11 (human)): 118%
residual activity (DYRK1A (human)): 52.7%
residual activity (RPS6KA1 KD1 KD2 (human)): 79%
residual activity (PASK (human)): 64.1%
residual activity (TSSK1B (human)): 99%

Reference: the kinase profiling compilation of Christmann-Franck et al. (2016)
